According to patent US20250049735A1, “MEDICINE FOR STEATOHEPATITIS” (The University of Tokyo, priority 2021, published 2025):
Like-named read-outs stand apart in the source and are kept apart here.

Assays:
[1] = tested on: Tax-iIEC-KO mice; details: 8 to 10 weeks of age
Description: Atp8b1^flox/flox mice were mated with villin-Cre/ERT2 transgenic mice (Stock No. 020282; The Jackson Laboratory), and Atp8b1^flox/+; villin-Cre/ERT2 mice in the obtained offsprings were then mated with Atp8b1^flox/flox mice to obtain Tamoxifen-induced, intestinal epithelial cell (IEC)-specific Atp8b1 knockout (Atp8b1Tax-iIEC-KO: Atp8b1^flox/flox; villin-Cre/ERT2) mice (Atp8b1 Tax-iIEC-KO mice). The resulting Atp8b1 Tax-iIEC-KO mice and littermate Atp8b1^flox/flox mice were used for animal experiments.
ALT and AST were determined by automatic measurement with Dri-chem (FUJIFILM, Tokyo, Japan).
The concentrations of choline, betaine, dimethylglycine (N,N-dimethylglycine) and glycerophosphorylcholine (sn-glycero-3-phosphocholine) in plasma were determined by liquid chromatography/tandem mass spectrometry (LC/MS/MS) assay. The sample was mixed with 98-fold volume of ethanol and 1-fold volume of the internal standard (IS) solution (10 μmol/L choline in water, 10 μmol/L glycerophosphorylcholine in water, and 1 μmol/L betaine in water). After vortex mixing, the sample was centrifuged at 21,500×g at 4° C. for 5 minutes. The obtained supernatant was injected into a UHPLC Nexera liquid chromatography system (Shimadzu co., Kyoto, Japan) equipped with an Ascentis Express HILIC column (2.1×50 mm, 2.7 μm, Merck KGaA, Darmstadt, Germany), and was then maintained at 4° C. The analyte was separated from the internal standard by gradient elution of mobile phase A (10 mmol/L ammonium acetate in water) and of mobile phase B (acetonitrile/water mixture) (99:1, v/v)). The gradient elution was carried out under the following conditions: 0-2 min., 82.5% B; 2-4 min., 82.5% to 5% B and 4-7 min. 5% B with a flow rate of 0.6 mL/min. The eluate was directly subjected to electrospray ionization under a positive ion mode using a 5500QTRAP mass spectrometer (Sciex pte. ltd., Toronto, Canada). All target molecules were scanned by selected reaction monitoring (SRM) mode.
Eight-week-old Tax-iIEC-KO mice and control mice were started to be orally administered with a normal saline, or with 50 mg/kg, 150 mg/kg or 500 mg/kg chloride choline, three times a day, and at the same time, the Tax-iIEC-KO mice and the control mice were administered with 1 mg/day of Tamoxifen for 5 consecutive days. Oral administration with a normal saline, or with 50 mg/kg, 150 mg/kg or 500 mg/kg chloride choline, three times a day, was continued, and thereafter, the mice were dissected at 10 weeks of age. The doses of 150 mg/kg and 500 mg/kg were determined by estimating the amount of choline consumed by the 0.3% choline supplemented diet group and the 1% choline supplemented diet group based on the daily food intake of mice.

[2] = biological target: T1, ATP8B1+CDC50A (Homo sapiens, UniProt O43520); experiment: Flippase (ATP8B1) assay: incorporation of NBD-phospholipids into CHO-K1 cells; type: cell-based; details: 15° C.
T1 construct: expressed in transfected cells; host or cells: CHO-K1 cells (CCL-61, ATCC), transiently transfected with PEI MAX
T1 sequence (O43520 1-1251): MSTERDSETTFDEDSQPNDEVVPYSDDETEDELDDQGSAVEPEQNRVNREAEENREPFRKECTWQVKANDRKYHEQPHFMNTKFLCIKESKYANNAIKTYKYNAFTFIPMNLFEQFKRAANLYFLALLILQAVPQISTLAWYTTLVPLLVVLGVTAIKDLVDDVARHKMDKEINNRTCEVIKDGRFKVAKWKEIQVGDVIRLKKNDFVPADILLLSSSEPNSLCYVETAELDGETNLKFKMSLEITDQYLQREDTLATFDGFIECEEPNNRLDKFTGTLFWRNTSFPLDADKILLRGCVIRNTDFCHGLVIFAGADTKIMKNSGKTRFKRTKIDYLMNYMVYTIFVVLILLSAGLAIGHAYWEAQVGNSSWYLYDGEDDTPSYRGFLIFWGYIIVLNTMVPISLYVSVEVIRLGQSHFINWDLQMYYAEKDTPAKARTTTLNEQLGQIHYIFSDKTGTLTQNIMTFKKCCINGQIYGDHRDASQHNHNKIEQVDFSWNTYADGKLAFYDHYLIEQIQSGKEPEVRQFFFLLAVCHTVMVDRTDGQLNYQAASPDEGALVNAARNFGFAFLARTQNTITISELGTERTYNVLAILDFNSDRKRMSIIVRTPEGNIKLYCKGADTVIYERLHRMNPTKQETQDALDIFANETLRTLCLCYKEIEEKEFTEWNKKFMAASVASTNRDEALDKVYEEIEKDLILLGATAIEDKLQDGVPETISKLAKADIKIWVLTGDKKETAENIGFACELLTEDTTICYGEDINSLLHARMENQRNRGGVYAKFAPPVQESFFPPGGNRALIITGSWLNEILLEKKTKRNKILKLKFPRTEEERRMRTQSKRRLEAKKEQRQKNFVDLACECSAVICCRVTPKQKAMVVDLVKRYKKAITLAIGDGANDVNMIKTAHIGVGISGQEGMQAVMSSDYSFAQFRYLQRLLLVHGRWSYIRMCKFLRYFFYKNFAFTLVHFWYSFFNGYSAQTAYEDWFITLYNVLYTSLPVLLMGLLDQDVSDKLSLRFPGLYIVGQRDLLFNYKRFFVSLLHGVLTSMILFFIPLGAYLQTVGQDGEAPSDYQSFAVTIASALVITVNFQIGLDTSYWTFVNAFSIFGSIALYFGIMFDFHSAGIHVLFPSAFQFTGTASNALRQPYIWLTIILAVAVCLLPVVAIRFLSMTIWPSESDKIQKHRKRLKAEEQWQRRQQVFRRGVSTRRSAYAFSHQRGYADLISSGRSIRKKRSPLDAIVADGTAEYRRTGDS
T1 sequence (Q9NV96 1-361 partner): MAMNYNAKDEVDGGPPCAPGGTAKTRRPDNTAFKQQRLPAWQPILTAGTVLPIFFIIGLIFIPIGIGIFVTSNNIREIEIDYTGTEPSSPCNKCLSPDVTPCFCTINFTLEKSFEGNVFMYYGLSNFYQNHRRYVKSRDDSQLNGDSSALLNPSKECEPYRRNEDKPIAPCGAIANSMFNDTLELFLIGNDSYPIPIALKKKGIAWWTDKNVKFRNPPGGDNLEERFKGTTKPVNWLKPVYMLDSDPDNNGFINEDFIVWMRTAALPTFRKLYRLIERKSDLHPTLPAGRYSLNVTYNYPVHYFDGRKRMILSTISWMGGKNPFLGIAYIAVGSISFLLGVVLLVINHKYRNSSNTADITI
Procedure: The experiment regarding incorporation of NBD-phospholipids into cells was carried out according to the previous reports (Suzuki et al., Nature 468, 834-838 2010; Takatsu et al., J. Biol. Chem., 289:33543-33556 2014).
To allow CDC50A alone, or ATP8B1 and CDC50A, to express in CHO-K1 cells, the CHO-K1 cells (CCL-61, ATCC, Manassas, VA) were transfected with the plasmids (pShuttle-EV, or pShuttle-ATP8B1-FLAG and pShuttle-HA-CDC50A), using PEI MAX (Polysciences, Warrington, PA). Forty-eight hours after the transfection, the cells were detached from dishes and were collected in PBS containing 5 mM EDTA, and thereafter, the cells were recovered in a precipitate by centrifugation. The cells (2×10^6 cells/sample) were washed and were then equilibrated at 15° C. for 15 minutes in 500 μL of HBSS (14025092, Thermo Fisher Scientific). An equal volume of 1 μg/mL 18:1-06:0 NBD-PC (810132, Avanti Polar Lipids) or 10 μg/mL 12:0 LysoNBD-PC (810128P: Avanti Polar Lipids) was added to the cell suspension, and the obtained mixture was then incubated at 15° C. Thereafter, at each time point, 300 μL of a cell suspension was collected, and was mixed with 300 μl of HBSS (ice cold) containing 5% fatty acid-free BSA (A6003: Sigma-Aldrich) to extract NBD-lipids incorporated into the exoplasmic leaflet of the plasma membrane as well as unincorporated NBD-Lipids.
Next, 10,000 cells were analyzed with a BD FACSCelesta (BD Bioscience, San Jose, CA) to measure the fluorescence of NBD-lipids incorporated into the cytoplasmic leaflet of the plasma membrane. The mean value of the fluorescence intensities per cell was calculated. Propidium iodide (P378: DOJINDO, Kumamoto, Japan) positive cells were excluded from the analysis.

[3] = to such an extent that extension of autologous liver survival was expected; cited from earlier work
[4] = tested on: Caco-2 cells; experiment: Cytotoxicity test (LDH release) in wild-type Caco-2 cells; details: wild-type Caco-2 cell line; 24 hours; various concentrations
Procedure: (§1) Caco-2 cells were cultured in DMEM (Dulbecco's modified Eagle's medium) (11995-065, Thermo Fisher Scientific) supplemented with 10% fetal bovine serum (10437, Thermo Fisher Scientific), 1% nonessential amino acids (11140-050, Thermo Fisher Scientific), 1% penicillin and streptomycin (15140-122, Thermo Fisher Scientific). The cells were cultured under conditions of 37° C., 5% CO2 and a humidity of 95%.
(§2) 5 mM Edelfosine dissolved in ethanol (CAY-60912-10, Cayman), 10 mg/mL lysophosphatidylcholine (LysoPC) dissolved in water/ethanol (1:1, v/v) (123-03781, FUJIFILM Wako Pure Chemical), and 10 mg/mL lysophosphatidylethanolamine (LysoPE) (L4754, Sigma-Aldrich) dissolved in ethanol were prepared as stock solutions. Caco-2 cells and ATP8B1 KO Caco-2 cells were seeded on 96-well plates at a cell density of 50,000 cells/well, and were then cultured, while replacing the medium with a fresh medium every 2 days. After 7 days of the culture, the cells were cultured for 24 hours in a new medium supplemented with various concentrations of edelfosine, lysophosphatidylcholine and lysophosphatidylethanolamine. Cytotoxicity was measured using, as an indicator, the amount of lactate dehydrogenase (LDH) released from the injured cells into the medium. The amount of LDH in the medium was measured using the Cytotoxicity LDH Assay Kit-WST (CK12, Dojindo) according to the instructions included therewith.

[5] = tested on: ATP8B1 KO Caco-2 cells; experiment: Cytotoxicity test (LDH release) in ATP8B1 KO Caco-2 cells; details: ATP8B1 KO Caco-2 cell line; 24 hours; various concentrations
Procedure: as §1, §2

[6] = oral 50 mg/kg three times a day
[7] = oral 150 mg/kg three times a day
[8] = oral 500 mg/kg three times a day
[9] = CHO-K1 cells expressing functional ATP8B1 (ATP8B1+CDC50A)
[10] = CHO-K1 cells without ATP8B1 expression (EV)

## C[N+](C)(C)CCO.[Cl-] [chloride choline]
[1]; [6]
  body weight loss of the Tax-iIEC-KO mice: suppression
  concentration of betaine in the liver: recovered up to the same level as those in the control mice
  concentration of choline in the liver: recovered up to the same level as those in the control mice
  liver injury markers (AST and ALT): normalization
[1]; [7]
  body weight loss of the Tax-iIEC-KO mice: suppression
  concentration of betaine in the liver: recovered up to the same level as those in the control mice
  concentration of choline in the liver: recovered up to the same level as those in the control mice
  liver injury markers (AST and ALT): normalization
[1]; [8]
  body weight loss of the Tax-iIEC-KO mice: suppression
  concentration of betaine in the liver: recovered up to the same level as those in the control mice
  concentration of choline in the liver: recovered up to the same level as those in the control mice
  liver injury markers (AST and ALT): normalization

## 18:1-06:0 NBD-PC
[2]; [9]
  incorporation of NBD-lipid into the cells (flow cytometry): incorporated into the cells
[2]; [10]
  incorporation of NBD-lipid into the cells (flow cytometry): incorporated into the cells in reduced amounts

## C[N+](C)(C)CCOP(=O)([O-])OCC(O)COC(=O)CCCCCCCCCCCNc1ccc([N+](=O)[O-])c2nonc12 (stereo not shown) [NBD-LysoPC, 12:0 LysoNBD-PC]
[2]; [9]
  incorporation of NBD-lipid into the cells (flow cytometry): incorporated into the cells
[2]; [10]
  incorporation of NBD-lipid into the cells (flow cytometry): incorporated into the cells in reduced amounts

## sodium phenylbutyrate
[3]
  therapeutic effects on PFIC1: did not exhibit therapeutic effects on PFIC1

## lysophosphatidylcholine [LPC]
[4]
  cytotoxicity (LDH released into the medium): did not cause significant cytotoxicity
[5]
  cytotoxicity (LDH released into the medium): increased cytotoxicity in a dose-dependent manner
